Patent US20220017572A1, “GEMINOID LIPOPEPTIDE COMPOUNDS AND THEIR USES” (Erasmus University Medical Center Rotterdam, priority 2016, published 2022)
Residues, ends and D or L forms follow the SMILES beside them.

Tests used:
trypsin = biological target: T1, trypsin (Bos taurus, UniProt P00760); experiment: Trypsin inhibition, fluorimetric enzyme assay; type: biochemical; settings: for remaining activity at 18 µM: 18 μM inhibitor; for remaining activity at 55 µM: 55 μM inhibitor; for remaining activity at 85 µM: 85 μM inhibitor; for remaining activity at 15 µM: 15 μM inhibitor
T1 construct: gene PRSS1
T1 sequence (P00760 24-246): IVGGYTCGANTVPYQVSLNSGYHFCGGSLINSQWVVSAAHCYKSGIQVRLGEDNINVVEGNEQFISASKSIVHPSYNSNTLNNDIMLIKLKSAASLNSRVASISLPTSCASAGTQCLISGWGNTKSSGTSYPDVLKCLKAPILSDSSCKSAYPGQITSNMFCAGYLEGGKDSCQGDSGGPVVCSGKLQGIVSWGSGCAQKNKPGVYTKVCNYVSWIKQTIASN
Description: (§1) The enzyme was dissolved in 1 mL MES buffer (10 mM), 1 mM CaCl2, pH 7.0 at 36.5° C. Substrate was added in a concentration 10 times the Km, and the inhibitor compounds of type C (C16-KGnK-C16, C16-KAnK-C16, and C16-RAnR-C16) were added in increasing concentrations (1.0, 5.0, 10.0, 20.0, 40.0 μL) from a stock solution of 2 mg in 1 mL DMSO. The residual activity was measured in a Hitachi F2500 spectrofluorimeter, and plots were fitted using the Grafit® software (Erithracus Software, Horley, Surrey, UK). All the assays were calculated by the Morrison equation for competitive inhibition (eq. 1, [Morrison, 1969]). The amount of substrate used for the tight binding titration experiments follow all the requirements, where [S]<<Km for all enzymes, so the Kiapp=Ki.
(§2) The first group of gemini-like peptide amphiphiles to be screened was that of C16-K(G or A)nK-C16 (compound type C, with R1=n-C15H31, R2=n-C16H33). […] The results of the Ki determination for trypsin, dengue 2 protease, and human furin are given in Table 1A; some general data for the inhibition by this type of compounds are given in Table 1B. For most compounds in Table 1 the Ki could be derived from competitive inhibition experiments. Judging from the Ki values with the relatively simple substrate Z-RR-MCA, the best inhibitors for dengue 2 protease contain alanine (A) rather than glycine (G).

dengue 2 protease [1] = biological target: T2, dengue 2 protease (Dengue virus type 2, UniProt P14340); experiment: Dengue 2 protease inhibition, hydrolysis of Z-RR-MCA; type: biochemical, dengue 2 virus; design: unit not given here; settings: 10 μM Z-RR-MCA, pH 9.0, 37° C., initial activity in UAF/min
T2 construct: The active site of the dengue protease is in the N-terminal part of NS3

human furin = human furin (Homo sapiens, UniProt P09958); experiment: Human furin inhibition, hydrolysis of Ac-RVRR-MCA; type: biochemical; settings: for activity at 5 µM: 5 μM inhibitor; for activity at 10 µM: 10 μM inhibitor; for activity at 15 µM: 15 μM inhibitor; for activity at 20 µM: 20 μM inhibitor; for activity at 40 µM: 40 μM inhibitor
Description: as §1
However, for furin we used a correction of Ki app, where [S]˜Km (eq. 2).
Range of Proteases Inhibited by Geminoids, Determination of Ki with Z-RR-MCA (Dengue 2 Protease) and Ac-RVRR-MCA (Furin) (SEQ ID NO:60).

thrombin = thrombin (Homo sapiens, UniProt P00734); experiment: Thrombin inhibition, fluorimetric enzyme assay; type: biochemical; settings: 36.5° C., read-out: Residual Activity (%) Thrombin; for remaining activity at 18 µM: 18 μM inhibitor; for remaining activity at 55 µM: 55 μM inhibitor; for remaining activity at 85 µM: 85 μM inhibitor
Description: as §1, with “Kiapp=Ki. […]” for “Kiapp=Ki.”

dengue 2 protease [2] = biological target: T2, dengue 2 protease; experiment: Dengue 2 protease inhibition, hydrolysis of Z-RR-MCA; type: biochemical, dengue 2 virus; settings: for activity at 5 µM: 5 μM inhibitor; for activity at 10 µM: 10 μM inhibitor; for activity at 15 µM: 15 μM inhibitor; for activity at 20 µM: 20 μM inhibitor; for activity at 40 µM: 40 μM inhibitor
dengue 2 protease [3] = biological target: T2, dengue 2 protease; experiment: Dengue 2 protease inhibition in presence of Triton X-100 (detergent test, Nature Protocol); type: biochemical, dengue 2 virus; settings: 0.05% Triton X-100; for Activity with 0.05% Triton: initial activity in UAF/min
Description: A further investigation of the interactions of the geminoid inhibitors with biological membranes and with membrane-bound proteases is needed. […] The preparation and tests of peptides symmetrically, asymmetrically and singly alkylated with saturated, short (C6), and unsaturated (C18:1) alkyl tails are in progress.

plasmin = plasmin (Homo sapiens, UniProt P00747); experiment: Plasmin inhibition, fluorimetric enzyme assay; type: biochemical; settings: 36.5° C., read-out: Residual Activity (%) Plasmin
Description: as §1, §2

[4] = 36.5° C., read-out: Residual Activity (%) Trypsin

human furin, sequence (P09958 108-794): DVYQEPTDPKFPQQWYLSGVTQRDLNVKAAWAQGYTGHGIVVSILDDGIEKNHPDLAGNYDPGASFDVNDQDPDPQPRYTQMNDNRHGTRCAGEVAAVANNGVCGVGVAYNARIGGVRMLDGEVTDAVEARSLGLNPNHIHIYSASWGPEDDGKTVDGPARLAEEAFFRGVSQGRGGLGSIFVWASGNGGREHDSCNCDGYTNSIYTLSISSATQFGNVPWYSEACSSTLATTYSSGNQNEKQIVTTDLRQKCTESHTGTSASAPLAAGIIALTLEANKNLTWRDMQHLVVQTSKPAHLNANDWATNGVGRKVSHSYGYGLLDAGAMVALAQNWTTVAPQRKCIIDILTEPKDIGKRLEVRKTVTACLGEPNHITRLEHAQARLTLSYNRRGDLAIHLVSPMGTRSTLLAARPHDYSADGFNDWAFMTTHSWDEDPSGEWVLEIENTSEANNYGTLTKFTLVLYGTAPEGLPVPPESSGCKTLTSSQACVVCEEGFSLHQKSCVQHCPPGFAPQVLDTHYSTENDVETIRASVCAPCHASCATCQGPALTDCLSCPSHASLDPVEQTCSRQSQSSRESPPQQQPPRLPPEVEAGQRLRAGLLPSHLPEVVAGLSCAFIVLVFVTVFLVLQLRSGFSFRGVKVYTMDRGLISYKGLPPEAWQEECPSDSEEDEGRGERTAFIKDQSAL
plasmin, sequence (P00747 581-810 limits assumed, species assumed): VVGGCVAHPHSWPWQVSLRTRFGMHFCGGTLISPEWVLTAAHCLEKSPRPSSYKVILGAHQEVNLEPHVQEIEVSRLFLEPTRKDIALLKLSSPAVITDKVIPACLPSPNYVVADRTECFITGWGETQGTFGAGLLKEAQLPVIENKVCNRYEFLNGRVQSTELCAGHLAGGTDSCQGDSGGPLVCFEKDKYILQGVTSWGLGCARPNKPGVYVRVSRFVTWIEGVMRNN
plasmin, sequence (P00747 97-580 partner limits assumed, species assumed): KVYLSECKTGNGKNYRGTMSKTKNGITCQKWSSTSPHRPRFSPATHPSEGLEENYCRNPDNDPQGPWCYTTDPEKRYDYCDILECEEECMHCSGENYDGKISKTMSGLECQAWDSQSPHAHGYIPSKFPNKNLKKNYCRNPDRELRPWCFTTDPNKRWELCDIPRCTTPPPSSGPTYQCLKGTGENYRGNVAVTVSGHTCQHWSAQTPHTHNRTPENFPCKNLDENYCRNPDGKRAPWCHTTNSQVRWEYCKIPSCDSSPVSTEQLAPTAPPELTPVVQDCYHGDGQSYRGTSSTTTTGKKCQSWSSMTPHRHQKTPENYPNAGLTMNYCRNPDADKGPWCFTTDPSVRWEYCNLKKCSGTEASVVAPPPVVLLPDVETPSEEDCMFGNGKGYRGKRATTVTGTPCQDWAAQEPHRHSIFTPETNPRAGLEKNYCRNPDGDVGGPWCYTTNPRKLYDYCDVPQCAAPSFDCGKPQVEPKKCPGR
T2 sequence (P14340 1476-1653): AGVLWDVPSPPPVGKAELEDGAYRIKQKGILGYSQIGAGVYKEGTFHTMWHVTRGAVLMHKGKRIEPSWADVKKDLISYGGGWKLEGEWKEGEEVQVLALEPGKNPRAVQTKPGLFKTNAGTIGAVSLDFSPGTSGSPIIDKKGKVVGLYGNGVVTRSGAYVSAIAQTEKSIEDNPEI

| SMILES | remaining activity at 18 µM (trypsin; [4]) | remaining activity at 55 µM (trypsin; [4]) | remaining activity at 85 µM (trypsin; [4]) | Activity with inhibitors (dengue 2 protease [1]; 30 μM of inhibitor) | activity at 5 µM (human furin; 36.5° C.) | activity at 10 µM (human furin; 36.5° C.) | activity at 15 µM (human furin; 36.5° C.) | activity at 20 µM (human furin; 36.5° C.) | activity at 40 µM (human furin; 36.5° C.) | remaining activity at 18 µM (thrombin) | remaining activity at 55 µM (thrombin) | remaining activity at 85 µM (thrombin) | Ki (dengue 2 protease [2]) | activity at 5 µM (dengue 2 protease [2]; 36.5° C.) | activity at 10 µM (dengue 2 protease [2]; 36.5° C.) | activity at 15 µM (dengue 2 protease [2]; 36.5° C.) | activity at 20 µM (dengue 2 protease [2]; 36.5° C.) | activity at 40 µM (dengue 2 protease [2]; 36.5° C.) | % recovery in presence of Triton (dengue 2 protease [3]; 30 μM of inhibitor) | Activity with 0.05% Triton (dengue 2 protease [3]; 30 μM of inhibitor) | further results |
| --- | --- | --- | --- | --- | --- | --- | --- | --- | --- | --- | --- | --- | --- | --- | --- | --- | --- | --- | --- | --- | --- |
| CCCCCCCCCCCCCCCCNC(=O)[C@H](CCCCN)NC(=O)CNC(=O)CNC(=O)CNC(=O)CNC(=O)[C@H](CCCCN)NC(=O)CCCCCCCCCCCCCCC [C16KG4KC16] (HELM PEPTIDE1{[CCCCCCCCCCCCCCCC(=O)[*:2]].K.G.G.G.G.K.[CCCCCCCCCCCCCCCCN[*:1]]}$$$$V2.0) | 81% | 67% | 53% | 0 | 82% | 64% | 54% | 23% | 0% | 88% | 59% | 41% | 1.37 µM | 86% | 78% | 70% | 60% | 45% | 63% | 125 | – |
| CCCCCCCCCCCCCCCCNC(=O)[C@H](CCCCN)NC(=O)CNC(=O)CNC(=O)CNC(=O)[C@H](CCCCN)NC(=O)CCCCCCCCCCCCCCC [C16-KGGGK-C16, C15H31CO-KGGGK-NH—C16H33] (HELM PEPTIDE1{[CCCCCCCCCCCCCCCC(=O)[*:2]].K.G.G.G.K.[CCCCCCCCCCCCCCCCN[*:1]]}$$$$V2.0) | 84% | 56% | 38% | 40 | 68% | 35% | 29% | 20% | 0% | 81% | 64% | 45% | 2.5 µM | 86% | 80% | 74% | 65% | 51% | 75% | 154 | Ki (trypsin): 11.1 µM |
| CCCCCCCCCCCCCCCCNC(=O)[C@H](CCCCN)NC(=O)[C@H](CCCCN)NC(=O)CCCCCCCCCCCCCCC [C16-KK-C16, C15H31CO-KK-NH—C16H33] | – | 58% | 43% | 48 | – | – | – | 10% | – | – | 48% | 37% | 5.37 µM | – | – | – | 58% | – | 52% | 113 | Ki (trypsin): 84.7 µM; remaining activity at 15 µM (trypsin; [4]): 82%; activity at 50 µM (human furin; 50 μM inhibitor, 36.5° C.): 5%; activity at 100 µM (human furin; 100 μM inhibitor, 36.5° C.): 0%; remaining activity at 15 µM (thrombin; 15 μM inhibitor): 62%; activity at 50 µM (dengue 2 protease [2]; 50 μM inhibitor, 36.5° C.): 37%; activity at 100 µM (dengue 2 protease [2]; 100 μM inhibitor, 36.5° C.): 7%; remaining activity at 15 µM (plasmin; 15 μM inhibitor): 39%; remaining activity at 55 µM (plasmin; 55 μM inhibitor): 11%; remaining activity at 85 µM (plasmin; 85 μM inhibitor): 4% |
| CCCCCCCCCCCCCCCCNC(=O)[C@H](CCCCN)NC(=O)[C@H](C)NC(=O)[C@H](C)NC(=O)[C@H](C)NC(=O)[C@H](C)NC(=O)[C@H](CCCCN)NC(=O)CCCCCCCCCCCCCCC [C16-KAAAAK-C16] (HELM PEPTIDE1{[CCCCCCCCCCCCCCCC(=O)[*:2]].K.A.A.A.A.K.[CCCCCCCCCCCCCCCCN[*:1]]}$$$$V2.0) | – | – | – | – | 59% | 52% | 45% | – | 0% | – | – | – | 2.4 µM | 90% | 85% | 79% | – | 45% | – | – | remaining activity at 15 µM (trypsin; [4]): 73%; remaining activity at 40 µM (trypsin; 40 μM inhibitor, 36.5° C., read-out: Residual Activity (%) Trypsin): 35%; remaining activity at 80 µM (trypsin; 80 μM inhibitor, 36.5° C., read-out: Residual Activity (%) Trypsin): 20%; Activity with inhibitors (dengue 2 protease [1]; 20 μM of inhibitor): 47; activity at 2.5 µM (human furin; 2.5 μM inhibitor, 36.5° C.): 70%; Ki (human furin; 10 mM Mes.NaOH, pH 7.0, 2.35 μM Ac-RVRR-MCA, 37° C., read-out: Ki hFurin): 1.75 µM; activity at 2.5 µM (dengue 2 protease [2]; 2.5 μM inhibitor, 36.5° C.): 94%; % recovery in presence of Triton (dengue 2 protease [3]; 20 μM of inhibitor): 67%; Activity with 0.05% Triton (dengue 2 protease [3]; 20 μM of inhibitor): 133 |
